Literature values in US20110268774A1, “PREPARATION OF STEM CELLS WITH REPROGRAMMED CELL SIGNALLING, A METHOD OF PRODUCING THE PREPARATION AND A METHOD OF USE THEREOF” (priority 2008, published 2011).

Target: Protein produced by HER2/neu gene (Homo sapiens, UniProt P04626)
Details: breast cancer

Sequence of Protein produced by HER2/neu gene (P04626 23-1255): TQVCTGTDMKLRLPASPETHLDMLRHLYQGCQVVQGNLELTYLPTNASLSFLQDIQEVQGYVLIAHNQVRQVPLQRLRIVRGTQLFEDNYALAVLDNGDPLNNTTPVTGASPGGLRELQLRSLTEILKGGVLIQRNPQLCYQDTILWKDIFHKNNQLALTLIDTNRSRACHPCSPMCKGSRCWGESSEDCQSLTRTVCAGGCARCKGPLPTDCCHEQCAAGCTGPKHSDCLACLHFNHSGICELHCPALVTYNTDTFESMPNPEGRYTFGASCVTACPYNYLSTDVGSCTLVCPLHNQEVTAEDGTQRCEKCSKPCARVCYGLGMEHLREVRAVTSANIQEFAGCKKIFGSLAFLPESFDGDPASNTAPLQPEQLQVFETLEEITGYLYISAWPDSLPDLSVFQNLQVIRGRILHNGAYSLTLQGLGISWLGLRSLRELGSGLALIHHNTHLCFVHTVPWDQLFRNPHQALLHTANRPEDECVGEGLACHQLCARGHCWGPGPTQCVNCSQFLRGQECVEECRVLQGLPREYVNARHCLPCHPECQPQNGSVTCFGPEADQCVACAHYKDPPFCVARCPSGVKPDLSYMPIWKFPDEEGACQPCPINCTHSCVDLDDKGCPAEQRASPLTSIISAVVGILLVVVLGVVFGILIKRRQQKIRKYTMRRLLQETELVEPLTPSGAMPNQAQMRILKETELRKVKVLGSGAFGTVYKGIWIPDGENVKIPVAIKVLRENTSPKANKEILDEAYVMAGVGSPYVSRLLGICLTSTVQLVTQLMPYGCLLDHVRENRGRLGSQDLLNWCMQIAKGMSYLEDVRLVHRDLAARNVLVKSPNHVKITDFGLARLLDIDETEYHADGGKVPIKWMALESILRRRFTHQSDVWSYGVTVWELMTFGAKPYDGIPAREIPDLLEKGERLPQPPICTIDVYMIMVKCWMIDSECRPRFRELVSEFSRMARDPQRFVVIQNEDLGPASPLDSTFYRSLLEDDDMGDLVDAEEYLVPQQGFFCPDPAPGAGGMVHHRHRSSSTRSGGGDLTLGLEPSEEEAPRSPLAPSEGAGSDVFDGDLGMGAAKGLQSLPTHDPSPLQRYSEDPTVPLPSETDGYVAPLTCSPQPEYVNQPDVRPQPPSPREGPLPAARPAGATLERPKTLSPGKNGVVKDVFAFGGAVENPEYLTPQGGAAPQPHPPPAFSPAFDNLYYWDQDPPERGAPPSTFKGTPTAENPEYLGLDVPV

recovery: 63%
CSC percentage in tumour (from 11%): 5%
Structure (SMILES): CS(=O)(=O)CCNCc1ccc(-c2ccc3ncnc(Nc4ccc(OCc5cccc(F)c5)c(Cl)c4)c3c2)o1 [Tykerb]
